Holding throughout (type): cell-based
The target of one test is T1, human V2 receptor (Homo sapiens, UniProt P30518).
T1 construct: expressed in transfected cells
The test can be described thus: Calcium flux assay (FLIPR) in CHO cells expressing human V2+Gqs5. Conditions: for Emax: CHO, maximum response normalized to endogenous full agonist = 100%, read-out: hV2 efficacy; for EC50: agonist mode, CHO cells with chimeric Gqs5, calcium flux FLIPR, read-out: hV2 EC50. The source says: (§1) Chines Hamster Ovary (CHO) cells were transfected with expression plasmids encoding either the human Vla, the human Oxytocin (OTR) or the humanV2 receptor, the later in combination with the chimeric Gqs5 G protein to redirect the signal to Calcium flux. Stable cells were cloned by limiting dilution to yield monoclonal cell lines expressing either human Vla, human V2+Gqs5 or human OTR receptors and selected based on functional responses detected on a fluorometric imaging plate reader (FLIPR) detecting Calcium flux in the cell after receptor activation. The stable cell lines were grown in F-12 K Nutrient Mixture (Kaighns Modification), containing 10% foetal bovine serum (FBS), 1% penicillin-streptomycin, 1% L-glutamate, 200 ug/ml Geneticin at 37° C. in a 10% CO2 incubator at 95% humidity.
(§2) Calcium Flux Assays Using Fluorescent Imaging (Fluorometric Imaging Plate Reader, FLIPR)
(§3) On the afternoon before the assay, cells were plated at a density of 50,000 cells/well into black 96 well plates with clear bottoms to allow cell inspection and fluorescence measurements from the bottom of each well. The density of cells was sufficient to yield a confluent monolayer the next day. Hanks balanced salt solution, without phenol red, containing 20 mM HEPES (pH 7.3) and 2.5 mM probenecid (assay buffer) was prepared fresh for each experiment. Compound dilutions were made using a Beckman Biomek 2000 laboratory automation workstation, in assay buffer containing 1% DMSO. The dye-loading buffer consisted of a final concentration of 2 μM Fluo-4-AM (dissolved in DMSO and pluronic acid) in assay buffer. The existing culture media was removed from the wells and 100 μl of the dye-loading buffer was added to each well and incubated for approximately 60 min at 37° C. in a 5% CO2 incubator at 95% humidity. Once dye-loaded, the cells were washed thoroughly on an Embla cell washer with the assay buffer to remove any unincorporated dye. Exactly 100 μl assay buffer was left in each well.
(§4) Each 96 well plate containing dye-loaded cells was placed into the FLIPR machine and the laser intensity set to a suitable level to detect low basal fluorescence. To test compounds as agonists, 25 μl diluted compound was added to the plate 10 seconds into the fluorescent measurements and fluorescent response was recorded for 5 minutes. The fluorescence data was normalized to the endogenous full agonist dose-response set at 100% for the maximum response and 0% for the minimum. Each agonist concentration-response curve was constructed using a four parameter logistic equation with Microsoft Excel XLFit as follows: Y=Minimum+((Maximum−Minimum)/(1+10^(LogEC50−X)nH)), where y is the % normalized fluorescence, minimum is the minimum y, maximum is the maximum y, log EC50 is the log10 concentration which produces 50% of the maximum induced fluorescence, x is the log10 of the concentration of the agonist compound and H is the slope of the curve (the Hill Coefficient). The maximum value gives the efficacy of the agonist test compound in percentage. The concentration of agonist that produced a half-maximal response is represented by the EC50 value, the logarithm of which yielded the pEC50 value.

The target in test [1] is T2, human Oxytocin (OTR) receptor (Homo sapiens, UniProt P30559).
T2 construct: expressed in transfected cells
T2 sequence (P30559 1-389): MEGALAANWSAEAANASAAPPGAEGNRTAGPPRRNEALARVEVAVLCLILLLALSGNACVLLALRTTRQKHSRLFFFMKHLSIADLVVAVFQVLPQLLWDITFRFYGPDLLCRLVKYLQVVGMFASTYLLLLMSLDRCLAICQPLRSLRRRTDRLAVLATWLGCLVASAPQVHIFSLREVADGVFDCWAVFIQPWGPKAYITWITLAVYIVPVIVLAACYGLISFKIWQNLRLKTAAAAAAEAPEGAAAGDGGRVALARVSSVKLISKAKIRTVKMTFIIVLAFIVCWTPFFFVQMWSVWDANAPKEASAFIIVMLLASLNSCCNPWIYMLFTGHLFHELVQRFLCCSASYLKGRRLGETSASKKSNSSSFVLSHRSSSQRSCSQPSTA
The test can be described thus: Calcium flux assay (FLIPR) in CHO cells expressing human OTR. The settings on record: for Emax: CHO, maximum response normalized to endogenous full agonist = 100%, read-out: hOT efficacy; for EC50: agonist mode, CHO cells, calcium flux FLIPR, read-out: hOT EC50.
Description: as §1, §2, §3, §4

The next test deals with T3, human V1a receptor (Homo sapiens, UniProt P37288).
T3 construct: expressed in transfected cells
T3 sequence (P37288 whole entry): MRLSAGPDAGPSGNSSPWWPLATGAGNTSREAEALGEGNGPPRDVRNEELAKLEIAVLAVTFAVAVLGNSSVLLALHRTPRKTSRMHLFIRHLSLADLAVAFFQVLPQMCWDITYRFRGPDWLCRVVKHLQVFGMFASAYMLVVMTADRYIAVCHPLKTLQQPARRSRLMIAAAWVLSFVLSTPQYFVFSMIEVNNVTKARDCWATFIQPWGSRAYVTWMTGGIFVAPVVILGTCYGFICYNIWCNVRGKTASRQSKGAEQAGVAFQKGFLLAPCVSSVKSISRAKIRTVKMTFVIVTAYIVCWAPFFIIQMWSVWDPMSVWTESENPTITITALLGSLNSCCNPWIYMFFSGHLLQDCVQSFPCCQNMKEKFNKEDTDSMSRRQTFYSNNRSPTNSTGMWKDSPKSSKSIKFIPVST
The test can be described thus: Calcium flux assay (FLIPR) in CHO cells expressing human V1a. Conditions: for EC50: agonist mode, CHO cells, calcium flux FLIPR, read-out: hV1a EC50.
Description: as §1, §2, §3, §4

*1 amine or outer side, *2 acyl side, *3 side chain or, on linkers, in order; H or OH if unused. Where a SMILES comes first, the peptide text is derived from it. Bridges are numbered along the chain shown (N, C = ends). [ ]: non-standard residue; d: D form. Hcy(O2-CH2CH2CO) = O=C([C@H](CCS(=O)(=O)CCC(=O)[*:3])N[*:1])[*:2]; αMeL = CC(C)C[C@](C)(N)C(=O)O; Chg = N[C@H](C(=O)O)C1CCCCC1; NcPrGly = O=C(O)CNC1CC1 Some results are limits rather than exact numbers.

T1 sequence (P30518 whole entry): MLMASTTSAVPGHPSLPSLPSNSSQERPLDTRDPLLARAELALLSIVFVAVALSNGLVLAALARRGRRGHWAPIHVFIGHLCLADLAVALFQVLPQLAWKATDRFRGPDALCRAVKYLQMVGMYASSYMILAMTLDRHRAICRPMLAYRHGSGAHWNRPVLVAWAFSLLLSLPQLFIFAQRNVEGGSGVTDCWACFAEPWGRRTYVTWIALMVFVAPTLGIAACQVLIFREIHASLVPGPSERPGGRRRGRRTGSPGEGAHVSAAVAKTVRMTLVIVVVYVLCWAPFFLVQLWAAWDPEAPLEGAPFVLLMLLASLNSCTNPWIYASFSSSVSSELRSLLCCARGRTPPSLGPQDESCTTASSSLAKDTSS

In the case of `CC[C@H](C)[C@@H]1NC(=O)[C@H](Cc2ccc(O)cc2)NC(=O)CCS(=O)(=O)CC[C@@H](C(=O)N2CCC[C@H]2C(=O)N[C@@H](CC(C)C)C(=O)NCC(N)=O)NC(=O)[C@H](CC(N)=O)NC(=O)[C@H](CCC(N)=O)NC1=O` [Example 1] (HELM PEPTIDE1{Y.I.Q.N.[O=C([C@H](CCS(=O)(=O)CCC(=O)[*:3])N[*:1])[*:2]].P.L.G.[am]}$PEPTIDE1,PEPTIDE1,1:R1-5:R3$$$V2.0), the Emax came to 101% at human V2 receptor and 120% in test [1]. The concentration giving a half-maximal response (EC50) was found to be 2.98 µM on human V2 receptor, 0.0008 µM in test [1] and 1.63 µM at human V1a receptor.

For the compound `CC[C@H](C)[C@@H]1NC(=O)[C@H](Cc2ccc(O)cc2)NC(=O)CCS(=O)(=O)CC[C@@H](C(=O)N(C)CC(=O)N[C@@H](CC(C)C)C(=O)NCC(N)=O)NC(=O)[C@H](CC(N)=O)NC(=O)[C@H](CCC(N)=O)NC1=O` [Example 2] (HELM PEPTIDE1{Y.I.Q.N.[O=C([C@H](CCS(=O)(=O)CCC(=O)[*:3])N[*:1])[*:2]].[Sar].L.G.[am]}$PEPTIDE1,PEPTIDE1,1:R1-5:R3$$$V2.0), the Emax is 86% at human V2 receptor and 107% in test [1]. Also, the EC50 on human V2 receptor is 3.98 µM; in test [1], 0.0008 µM; at human V1a receptor, over 27 µM.

For the compound `CC[C@H](C)[C@@H]1NC(=O)[C@H](Cc2ccc(O)cc2)NC(=O)CCS(=O)(=O)CC[C@@H](C(=O)N(CC(=O)N[C@@H](CC(C)C)C(=O)NCC(N)=O)C2CC2)NC(=O)[C@H](CC(N)=O)NC(=O)[C@H](CCC(N)=O)NC1=O` [Example 27] (HELM PEPTIDE1{Y.I.Q.N.[O=C([C@H](CCS(=O)(=O)CCC(=O)[*:3])N[*:1])[*:2]].[O=C(CN(C1CC1)[*:1])[*:2]].L.G.[am]}$PEPTIDE1,PEPTIDE1,1:R1-5:R3$$$V2.0), the Emax at human V2 receptor was 110%; in test [1] it was 125%. The EC50 on human V2 receptor is 3.73 µM; in test [1], 0.0005 µM; at human V1a receptor, over 27 µM.

Regarding `CC[C@H](C)[C@@H]1NC(=O)[C@H](Cc2ccc(O)cc2)NC(=O)CCS(=O)(=O)CC[C@@H](C(=O)N(CC(=O)N[C@@](C)(CC(C)C)C(=O)NCC(N)=O)C2CC2)NC(=O)[C@H](CC(N)=O)NC(=O)[C@H](CCC(N)=O)NC1=O` [Example 28] (YIQN[Hcy(O2-CH2CH2CO)][NcPrGly][αMeL]G-NH2; lactam N-5), the Emax was 129% at human V2 receptor and 105% in test [1]. Also, the concentration giving a half-maximal response (EC50) on human V2 receptor is 9.42 µM; in test [1], 0.0007 µM; on human V1a receptor, over 27 µM.

Regarding `CC[C@H](C)[C@H](NC(=O)CN(C(=O)[C@@H]1CCS(=O)(=O)CCC(=O)N[C@@H](Cc2ccc(O)cc2)C(=O)N[C@@H]([C@@H](C)CC)C(=O)N[C@@H](CCC(N)=O)C(=O)N[C@@H](CC(N)=O)C(=O)N1)C1CC1)C(=O)NCC(N)=O` [Example 31] (HELM PEPTIDE1{Y.I.Q.N.[O=C([C@H](CCS(=O)(=O)CCC(=O)[*:3])N[*:1])[*:2]].[O=C(CN(C1CC1)[*:1])[*:2]].I.G.[am]}$PEPTIDE1,PEPTIDE1,1:R1-5:R3$$$V2.0), on human V2 receptor, the Emax was 150% and the half-maximal effective concentration (EC50) worked out at 2.94 µM. In test [1], the Emax was found to be 115% and the concentration for a half-maximal effect (EC50) is 0.0004 µM.

`CC[C@H](C)[C@@H]1NC(=O)[C@H](Cc2ccc(O)cc2)NC(=O)CCS(=O)(=O)CC[C@@H](C(=O)N(CC(=O)N[C@H](C(=O)NCC(N)=O)C2CCCCC2)C2CC2)NC(=O)[C@H](CC(N)=O)NC(=O)[C@H](CCC(N)=O)NC1=O` [Example 32] (YIQN[Hcy(O2-CH2CH2CO)][NcPrGly][Chg]G-NH2; lactam N-5): the Emax came to 155% on human V2 receptor and 120% in test [1]. Moreover, the 50% effective concentration (EC50) was 2.36 µM on human V2 receptor, 0.00026 µM in test [1] and 2.23 µM at human V1a receptor. Further, the hV1a efficacy on human V1a receptor (maximum response normalized to endogenous full agonist = 100%) is given as 38%.

Source of the values: US20170081368A1, “PEPTIDES AS OXYTOCIN AGONISTS” (Hoffmann-La Roche Inc., priority 2014, published 2017).
